Reference: publication PMC8147984, “Effects of Sponge-Derived Alkaloids on Activities of the Bacterial α-D-Galactosidase and Human Cancer Cell α-N-Acetylgalactosaminidase” (Biomedicines, 2021)

Legend:
[1] = target: T1, α-D-galactosidase (α-PsGal) (Pseudoalteromonas sp. KMM 701, UniProt Q19AX0); test: Inhibitory potency on recombinant α-PsGal (residual activity); format: biochemical; conditions: for Residual activity v/v0 (%) of the α-PsGal: preincubated 30 min, 20 °C, pH 7.0
T1 sequence (Q19AX0 1-710): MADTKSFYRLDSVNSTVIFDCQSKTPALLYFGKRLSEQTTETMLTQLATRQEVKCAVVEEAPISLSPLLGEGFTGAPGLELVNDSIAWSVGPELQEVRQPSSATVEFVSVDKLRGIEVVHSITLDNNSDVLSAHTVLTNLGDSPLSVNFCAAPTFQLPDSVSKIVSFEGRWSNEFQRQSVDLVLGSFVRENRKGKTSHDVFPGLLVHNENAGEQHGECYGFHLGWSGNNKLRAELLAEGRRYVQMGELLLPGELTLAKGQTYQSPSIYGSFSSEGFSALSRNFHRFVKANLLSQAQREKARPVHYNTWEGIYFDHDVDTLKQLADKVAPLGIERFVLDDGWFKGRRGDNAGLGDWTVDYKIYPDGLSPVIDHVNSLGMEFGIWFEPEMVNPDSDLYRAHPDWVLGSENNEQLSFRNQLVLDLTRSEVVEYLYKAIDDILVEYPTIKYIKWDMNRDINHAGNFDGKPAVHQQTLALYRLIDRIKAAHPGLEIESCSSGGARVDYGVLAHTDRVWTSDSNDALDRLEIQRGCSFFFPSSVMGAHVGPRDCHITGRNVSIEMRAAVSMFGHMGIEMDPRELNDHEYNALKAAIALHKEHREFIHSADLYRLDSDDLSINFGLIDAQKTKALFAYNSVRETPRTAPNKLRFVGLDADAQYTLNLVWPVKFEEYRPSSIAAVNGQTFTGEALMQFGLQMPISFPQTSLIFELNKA
Experimental: The recombinant wild-type α-D-galactosidase (α-PsGal) was produced as described earlier. The plasmid DNA pET-40b(+) containing insertion of the gene from the marine bacterium Pseudoalteromonas sp. KMM 701 encoding α-PsGal was transformed in the Escherichia coli strain Rosetta (DE3). Heterological expression was carried out at optimal conditions as described earlier. Purification of the recombinant […] was performed, according to described procedures. The purification quality was controlled by 12% Laemmli-SDS-PAGE-electrophoresis.
(§1) The activity of α-PsGal and α-NaGalase were determined by increasing the amount of p-nithrophenol (pNP). To assay the α-NaGalase activity 0.05 mL of cell extract and 0.1 mL of substrate pNPNA-α-Gal (8.8 mM) in 0.05 M sodium citrate buffer, pH 5.0 were placed in cells of 96-well plate and incubated at 37 °C for 30 min. The mixtures containing 0.05 mL of an enzyme solution and 0.1 mL of a substrate solution (3.3 mM) in 0.05 M sodium phosphate buffer (pH 7.0) were incubated at 20 °C during 5 min for determination of α-PsGal standard activity. The reactions were stopped by the addition of 0.15 mL of 1 M Na2CO3 solution.
Absorbance was measured at 400 nm. Results were read with a computer program Gen5 and treated with ExCel computer program. The unit of standard activity (U) was defined as the amount of the enzyme catalyzing the formation of 1 µmol of p-nitrophenol (ε400 = 18,300 M^−1 cm^−1) per 1 min under the conditions indicated. Specific activity (A) was calculated as the enzyme activity (U) per 1 mg of protein. All calculations were based on reactions with consumption of 10% of the chromogenic substrate. The protein concentrations were estimated by the Bradford method with BSA as a standard. Residual activity (%) was calculated with formula: Residual activity (%) = v/v0 ×100, where v is the initial reaction rate of enzymes under the action of an inhibitor or other factors, v0 is the initial reaction rate of enzymes in the absence of the influence of any factors. Buffer solutions of α-PsGal (0.1 U/mL) and α-NaGalase (0.01 U/mL) were used in the further experiments.
In the control sample, 5 μL of water or 2 μL of EtOH were added to 25 μL of enzyme solution. The enzyme reaction was initiated by adding 120 μL of the substrate pNP-α-Gal (3.3 mM) for α-PsGal or pNPNA-α-Gal (8.8 mM) for α-NaGalase in the respective buffer solutions. After 10 min for α-PsGal or 60 min for α-NaGalase the reaction was stopped by adding 150 μL of 1 M Na2CO3. The amount of pNP was quantified by spectrophotometric detection at 400 nm. Results were evaluated as the percent of residual activity as described above.

[2] = test system: α-NaGalase in human colorectal adenocarcinoma cell line DLD-1; test: Residual α-NaGalase activity (expression) in lysate of DLD-1 cells treated with alkaloids; format: cell-based; conditions: DLD-1 cells treated with 5 μM for 24 h
Experimental: DLD-1cells (5.0 × 10^5) were seeded in […] for 24 h at 37 °C in a 5% CO2 incubator. Then the cells were treated with compounds 1–9 at concentrations ranging from 0 to 20 μM for an additional 24 h. Then the cells were harvested using 0.02% EDTA, after this 3 mL of cold 15 mM Tris–HCl (pH 7.0) was added.
Every 3–4 days cells were rinsed in phosphate buffered PBS, detached from the tissue culture flask by 1× trypsin/EDTA solution, harvested with RPMI-1640 medium and centrifuge at 500 rpm for 3 min. The culture media was discarded and cells pellet was resuspended in EDTA/Tris solution and frozen at −80 °C.
Frozen lysates of cancer cells in the 15 mM Tris buffer, pH 7.0 containing 0.02% EDTA, defrosted and sonicated 10 times during 1 min with a break of 1 min. To remove the cellular detritus, the cell homogenate was centrifuged at 4 °C, 10,000 rpm, 30 min. The supernatant proteins were precipitated with 35% ammonium sulfate, kept during four hours at 4 °C to form a pellet. The protein pellet was collected by centrifugation (4 °C, 10,000 rpm, 30 min) and dissolved in 0.05 M sodium citrate buffer, pH 5.0. The supernatant proteins were precipitated with 75% ammonium sulfate, kept overnight at 4 °C to form a pellet. The protein pellet was collected by centrifugation (4 °C, 10,000 rev/min, 30 min) and dissolved in 0.05 M sodium citrate buffer, pH 5.0. Both extracts were dialyzed against the same buffer, centrifuged to separate the insoluble precipitate. α-NaGalase activity was tested in both extracts and was found only in the protein fraction precipitated with 75% ammonium sulfate. This supernatant was used in further work as partly purified enzyme. The purification quality was controlled by 12% Laemmli-SDS-PAGE-electrophoresis.
as §1, with “The reactions were stopped by the addition of 0.15 mL of 1 M Na2CO3 solution.” left out
Absorbance was measured at 400 nm. Results were read with a computer program Gen5 and treated with ExCel computer program. […] Specific activity (A) was calculated as the enzyme activity (U) per 1 mg of protein. […] Residual activity (%) was calculated with formula: Residual activity (%) = v/v0 ×100, where v is the initial reaction rate of enzymes under the action of an inhibitor or other factors, v0 is the initial reaction rate of enzymes in the absence of the influence of any factors. […]

[3] = target: T1, α-D-galactosidase (α-PsGal); test: Irreversibility of α-PsGal inhibition (dialysis experiment); format: biochemical; conditions: dialysis against buffer for 60 h at 4 °C; activity did not recover
Experimental: To determine the reversibility of the α-PsGal activity inhibition by alkaloids 2, 3, 8, and 9 15 µL of 0.625 mM aqueous solution of the compounds 2 and 3 or 6 µL of 2.5 mM ethanol solution of the compound 8 and 9 were added to 75 µL of the enzyme solution in 0.05 M sodium phosphate buffer (pH 7.0). After 30 min of the mixture incubation the aliquot of 30 µL was taken and 120 µL of 3.3 mM pNPG solution were added to initiate the reaction; the reaction was stopped by addition of 150 µL of 1M Na2CO3. The α-D-galactosidase activity was determined, as described above. The remaining reaction mixture was dialyzed against 1 L of 0.02 M sodium phosphate buffer (pH 7.0) for 60 h at 4 °C. The buffer was changed 3 times during the dialysis. The enzyme activity was determined, as described above. A sample of α-PsGal treated with H2O or EtOH in the absence of the inhibitor (75 µL of the enzyme solution and 15 µL of H2O or 6 µL of EtOH, respectively) was dialyzed and used as a control for determination of the initial activity. The experiment was carried out in two replicates. The residual activity was calculated as described above.

[4] = target: T1, α-D-galactosidase (α-PsGal); test: Kinetic studies of α-PsGal inactivation; format: biochemical; conditions: pH 7.0, 20 °C; for Ki / kinact: Hill equation fit; for Ki: read-out: Ki, equilibrium inhibition constant; for kinact: read-out: kinact, inactivation rate constant (converted)
Experimental: The kinetic parameters Ki and kinact were determined by classic methods. The inactivation of α-PsGal was monitored by incubation of the enzyme with different concentrations of alkaloids in […] sodium phosphate buffer, pH 7.0, at 20 °C in total volume of 30 µL (25 µL and 5 µL of α-PsGal and alkaloids, respectively), which were placed in cells of 96 cells plate. After preincubation of enzyme-inhibitor mixture for 0.5, 5, 10, 15, 20, 25, or 30 min […] the fraction of remaining enzyme activity was measured as a function of time by addition to the inactivation mixture 120 µL of a solution of pNP-α-Gal (3.3 mM). The pseudo-first-order rate constant of inactivation (kobs) was determined for each inactivator concentration as the slope of the v/v0 dependence on the incubation time in semilogarithmic coordinates. The Excel software was used for these calculations. The second order rate constants for the inactivation process were determined by fitting the dependences of the kobs values on the concentration of the inactivators to the Hill or Michaelis–Menten equations. An analysis of the graphs and the choice of models for calculation of inhibition constants (Ki, mM) and inactivation rate constants (kinact, min^–1) were performed with the Origin computer software.

DLD-1 cells = test: MTS cytotoxic activity assay on DLD-1 cells; format: cell-based, human; conditions: for cytotoxicity against DLD-1 cells: dose up to 20 μM
Experimental: DLD-1 cells (8 × 10^3/200 μL) were seeded in 96-well plates for 24 h at 37 °C in a 5% CO2 incubator. The cells were treated with compounds 1–9 at concentrations ranging from 0 to 20 μM for an additional 24 h. Subsequently, cells were incubated with 15 μL MTS (3-(4,5-dimethylthiazol-2-yl)-5-(3-carboxymethoxyphenyl)-2-(4-sulfophenyl)-2H-tetrazolium) reagent for 3 h, and the absorbance in each well was measured at 490/630 nm using a microplate reader “Power Wave XS” (Bio Tek, Winooski, VT, USA). All the experiments were repeated three times, and the mean absorbance values were calculated. The results are expressed in absorbance by the compound’s treatment compared to the non-treated cells (control 1) and the compounds in medium (control 2). All the experiments were made in triplicate.

| SMILES | inhibitory activity against α-PsGal (in words) [1] | Residual activity v/v0 (%) of the α-PsGal ([1]; compound concentration 1.48 mM) | expression of the enzyme α-NaGalase (residual activity of lysate cell α-NaGalase, control 100%) [2] [%] | irreversibility of α-PsGal inhibition [3] | n, Hill's coefficient of cooperativity [4] | Ki [4] [µM] | kinact [4] [s⁻¹] | Residual activity v/v0 (%) of the α-PsGal ([1]; compound concentration 1.67 mM) | other results |
| --- | --- | --- | --- | --- | --- | --- | --- | --- | --- |
| Cn1cc2c3c1C(=O)C(N)=CC3=[N+](C)CC2 [Compound 7, makaluvamine H] | no notable activity | 67 ^2% | 50 | – | – | – | – | – | – |
| Cn1cc2c3c1C(=O)C(N/C=C/c1ccc(O)cc1)=CC3=[N+](C)CC2 [Compound 8, makaluvamine G] | low inhibitory activity | 28 ^2% | – | irreversibly inactivate | 2.5 | 411 ± 86 | 0.00132 | – | n, Hill's coefficient of cooperativity ([4]; listed as makaluvamine G (8)): 2.5 ± 0.97 |
| CN1CCc2c[nH]c3c2C1=CC(=O)C3=O [Compound 6, damirone B] | no notable activity | 87 ^2% | 52 | – | – | – | – | – | – |
| CNCCc1cn(C)c2c1C(=O)c1c(-c3ccc(O)cc3)c[nH]c1C2=O [Compound 9, zyzzyanone A] | low inhibitory activity | 0 ^2% | – | irreversibly inactivate | 4.1 | 105 ± 9 | 0.000617 | – | n, Hill's coefficient of cooperativity ([4]; listed as zyzzyanone A (9)): 4.10 ± 1.42 |
| CN1CCc2cn(C)c3c2C1=CC(=O)C3=O [Compound 5, damirone A] | no notable activity | 87 ^2% | – | – | – | – | – | – | – |
| COc1cc2ccnc3c2c(c1O)N(C)C=C3 [Compound 2, isoaaptamine] | – | – | 64 | irreversibly inactivate | 2.17 | 2.7 ± 0.42 | 0.002 | 0 ^1% | cytotoxicity against DLD-1 cells (DLD-1 cells; 24 h): weakly cytotoxic; decrease in cell viability (DLD-1 cells; DLD-1 cells, 24 h, at 20 μM): 20%; n, Hill's coefficient of cooperativity ([4]; listed as isoaaptamine (2)): 2.17 ± 0.55 |
| COc1cc2ccnc3c2c(c1OC)NC=C3 [Compound 1, aaptamine] | no notable activity | – | – | – | – | – | – | 79 ^1% | cytotoxicity against DLD-1 cells (DLD-1 cells; 24 h): non-cytotoxic |
| COc1cc2c3c(cc[n+](C)c3c1[O-])NC(=O)C2=O [Compound 4, aaptanone] | no notable activity | – | – | – | – | – | – | 100 ^1% | – |
| COc1cc2ccnc3c2c(c1O)NC=C3 [Compound 3, 9-demethylaaptamine] | – | – | 57 | irreversibly inactivate | 0.84 | 300 ± 77 | 0.00153 | 0 ^1% | IC50 (DLD-1 cells; Homo sapiens, DLD-1, 24 h, read-out: concentration that caused a 50% reduction in cell viability (IC50) of DLD-1 cells): 17 ± 0.2 µM; n, Hill's coefficient of cooperativity ([4]; listed as 9-demethylaaptamine(3)): 0.84 ± 0.12 |
